Assay results as given in patent publication US20160082130A1, “Dosage Forms and Methods for Diagnosing Sympathetic Nervous System Dysfunction” (priority 2014, published 2016).

Legend:
healthy subjects = experiment: apraclonidine 0.05% eye drop test in healthy control subjects (digital photographs, Image-J); assay type: in vivo, human
From the text: (§1) Patients with a diagnosis of GBS based on history and clinical exam were recruited for this study. Patients with diabetes were excluded from the study. Patients on medications or eye drops with either sympathetic or parasympathetic action were also excluded from the study. […] All patients had electrophysiological studies done in terms of nerve conduction studies at the time of their diagnosis. Patients on opioid therapy were not excluded. In total, five patients met the criteria for inclusion. Healthy control participants were recruited in outpatient clinics from partners and family members accompanying a person with an appointment. Participants with diabetes, ocular disease, previous ocular surgeries, and on sympathetic or parasympathetic medications or eye drops were also excluded from the study. Digital photographs of the subjects' eyes were obtained prior to the application of apraclonidine. A small pre-measured reference was used at the time of photography to help quantify measurements. Apraclonidine (0.05% drop) was added to the left eye and a follow up photograph was obtained some time (19-52 min) after the application of the drop. The digital photographs were analyzed with Image-J software (Schneider, C. A., et al., Nat. Methods 9:671-675, 2012) to determine pupillary diameter and palpebral fissure heights. Standard deviation of the measurements for error propagation was determined by repeated computer measurement of the pre-measured reference in a digital photograph. Palpebral fissure height was determined by measuring the vertical distance between the eyelids with the measurement going through the centre of each pupil. Pupillary diameter was determined with two measurements (horizontal and vertical) and an average denoted as OS or OD used for each pupil for further calculations. Pupillary response was quantified with the percentage ratio (D2−D1)/D1×100, where D1 and D2 represent the baseline anisocoria (D1=OS−OD) and the drug-induced anisocoria (D2=OS*−OD*) respectively.

[1] = tested on: patients with a diagnosis of GBS; experiment: apraclonidine 0.05% eye drop test in patients with Guillain-Barré syndrome (digital photographs, Image-J); assay type: in vivo, human
From the text: as §1

## Nc1cc(Cl)c(NC2=NCCN2)c(Cl)c1 [apraclonidine, 2,6-dichloro-N-(4,5-dihydro-1H-imidazol-2-yl)benzene-1,4-diamine]
Healthy subjects; healthy subjects, 0.05% drop to one eye
  effect on pupillary diameter: no significant effect
Healthy subjects; healthy subjects, analysis of digital photographs
  effect on the pupils: either no effect or caused paradoxical miosis of the pupil
Healthy subjects; normal individuals, 0.05% drop to one eye
  effect on palpebral fissure height: did not have any significant effect
[1]; GBS patients with only ptosis, computer analysis of digital photographs
  amplification of palpebral fissure height difference after application: 1130% (±80%)
[1]; GBS patients with pupillary dysfunction, (D2-D1)/D1x100
  amplification of anisocoria after administration: 1124% (±324%)
[1]; five GBS patients, 0.05% drop to left eye, photograph 19-52 min after
  unmasking of bilateral ptosis: unmasked bilateral ptosis in all five GBS patients
[1]; five GBS patients, 0.05% drop to one eye
  unmasking of bilateral Horner's syndrome with dilation of miotic pupil: unmasked bilateral Horner's syndrome with dilation of miotic pupil in two of the five patients
[1]; photographic evidence from the subjects in this study
  unmasking of reverse ptosis of the lower eyelid: unmasks a reverse ptosis of the lower eyelid
